Measurements as given in patent publication US20090018162A1, “USE OF 6-(3-CHLORO-2-FLUOROBENZYL)-1-[(2S)-1-HYDROXY-3-METHYLBUTAN-2-YL]-7-METHOXY-4-OXO-1,4-DIHYDROQUINOLINE-3-CARBOXYLIC ACID OR SALT THEREOF FOR TREATING RETROVIRUS INFECTION” (priority 2006, published 2009).
Counter-ions that a name gives are not always drawn. Like-named read-outs stand apart in the source and are kept apart here.

Columns and labels:
[1] = MTS cytotoxicity in monocyte/macrophage cultures; type: cell-based; conditions: human
Method: (§1) Anti-HIV Efficacy Evaluation in Fresh Human Monocyte/Macrophage. Monocytes/macrophages were allowed to adhere to the interior 60 wells of a 96 well flat bottomed plate for 2 to 18 hours at 37° C., 5% CO2. Following 6 to 14 days in culture, the monocyte/macrophage cultures were washed 3 times to remove any non-adherent cells and serially diluted test compounds were added followed by the addition of a pre-titered amount of HIV. Cultures were washed a final time by media removal 24 hours post infection, fresh compound added and the cultures continued for an additional six days. […] At assay termination, virus replication was measured by collecting cell-free supernatant samples which were analyzed for HIV p24 antigen content using a commercially available p24 ELISA assay (Coulter). […] MTS staining for PBMC viability to measure cytotoxicity. […] The mitochondrial enzymes of metabolically active cells metabolize MTS to yield a soluble formazan product. This allows the rapid quantitative analysis of cell viability and compound cytotoxicity. […] At termination of the assay, 20 μL of MTS reagent was added per well. The microtiter plates were then incubated 4-6 hrs at 37° C. The incubation intervals were chosen based on empirically determined times for optimal dye reduction. […] Data analysis.

[2] = system: HIV-1 clinical isolates
[3] = system: HIV-1 macrophage-tropic virus strains
[4] = system: human PBMCs; conditions: 7 days
[5] = system: HIV-1 clinical isolates; assay: microbe, parasite or virus in culture; conditions: Human immunodeficiency virus 1, PBMC
[6] = system: HIV-1 macrophage-tropic virus strains; assay: microbe, parasite or virus in culture
[7] = system: HIV-2 CDC 310319; assay: microbe, parasite or virus in culture; conditions: Human immunodeficiency virus 2, PBMC
[8] = MTS staining for PBMC viability (cytotoxicity); conditions: human
[9] = system: human PBMCs; assay: MTS staining for PBMC viability (cytotoxicity); conditions: read-out: TC50, PBMCs, MTS
[10] = system: drug-resistant HIV-1 isolates; assay: Anti-HIV efficacy in fresh human PBMCs, drug-resistant HIV-1 isolates; conditions: for IC50: Human immunodeficiency virus 1, PBMC, in Homo sapiens
[11] = system: human monocytes/macrophages; assay: MTS cytotoxicity in monocyte/macrophage cultures; type: cell-based; conditions: 7 days
Method: as §1

[12] = system: HIV-2 CDC 310319; conditions: HIV-2 CDC 310319 in PBMCs
[13] = in vitro; conditions: human
[14] = HIV-1 96USHIPS7 (subtype /B, R5) in PBMCs
[15] = HIV-1 BR/92/021 (subtype B/B, R5) in PBMCs
[16] = HIV-1 BR/93/017 (subtype B/B, R5) in PBMCs
[17] = HIV-1 BR/93/020 (subtype F/F, R5/X4) in PBMCs
[18] = HIV-1 BR/93/022 (subtype /B, R5) in PBMCs
[19] = HIV-1 CMU 02 (subtype /EA, X4) in PBMCs
[20] = HIV-1 JV 1083 (subtype /G, R5) in PBMCs
[21] = HIV-1 RW/92/016 (subtype A/A, R5) in PBMCs
[22] = HIV-1 UG/92/046 (subtype D/D, X4) in PBMCs
[23] = HIV-1 52-52 (protease-inhibitor resistant) in PBMCs
[24] = against several viruses (e.g., MDR 1385, MDR 3761) in PBMCs
[25] = multi-drug-resistant HIV-1 MDR 769 in PBMCs
[26] = multi-drug-resistant HIV-1 MDR 807 in PBMCs
[27] = multi-drug-resistant HIV-1 MDR 1385 in PBMCs
[28] = multi-drug-resistant HIV-1 MDR 3761 in PBMCs

In the case of `O=C1Nc2ccc(Cl)cc2[C@@](C#CC2CC2)(C(F)(F)F)O1` [Efavirenz, efavirenz], the CC50 at 7 days ([1]; fresh adherent monocyte/macrophage cultures, HIV-infected, macrophages, ADA assay, MTS, read-out: TC50) is reported as over 10000 nM, the CC50 at 7 days ([1]; fresh adherent monocyte/macrophage cultures, HIV-infected, macrophages, Ba-L assay, MTS, read-out: TC50) is reported as over 10000 nM and the “TI (TC50/IC50)” value ([2]; HIV-1 96USHIPS7 in PBMCs) is reported as over 1538.5. The “TI (TC50/IC50)” value ([2]; HIV-1 BFC01 in PBMCs) was over 1449.3, the “TI (TC50/IC50)” value ([2]; HIV-1 BR/92/021 in PBMCs) was over 21.3 and the “TI (TC50/IC50)” value ([2]; HIV-1 BR/92/025 in PBMCs) was over 3333.3. For the same compound, the “TI (TC50/IC50)” value ([2]; HIV-1 BR/93/017 in PBMCs) was over 1724.1, the “TI (TC50/IC50)” value ([2]; HIV-1 BR/93/020 in PBMCs) was over 3125.0 and the “TI (TC50/IC50)” value ([2]; HIV-1 BR/93/022 in PBMCs) was over 1612.9. The “TI (TC50/IC50)” value ([2]; HIV-1 CMU 02 in PBMCs) was over 549.5, the “TI (TC50/IC50)” value ([2]; HIV-1 JV 1083 in PBMCs) was over 1538.5 and the “TI (TC50/IC50)” value ([2]; HIV-1 RW/92/016 in PBMCs) was over 1639.3. The “TI (TC50/IC50)” value ([2]; HIV-1 UG/92/046 in PBMCs) was over 840.3, the “TI (TC50/IC50)” value ([3]; HIV-1 ADA in macrophages) was over 2793.3 and the “TI (TC50/IC50)” value ([3]; HIV-1 Ba-L in macrophages) was over 4717.0. It also gave a CC50 [4] of over 1000 nM, an IC50 [5, 14] of 0.65 nM and an IC50 [5, 15] of 47 nM. It also gave an IC50 [5, 16] of 0.58 nM, an IC50 [5, 17] of 0.32 nM and an IC50 [5, 18] of 0.62 nM. For the same compound, the IC50 [5, 19] was 1.82 nM, the IC50 [5, 20] was 0.65 nM and the IC50 [5, 21] was 0.61 nM. The IC50 [5, 22] was 1.19 nM, the IC50 ([6]; Human immunodeficiency virus 1, BAL, Macrophage) was 2.12 nM and the IC50 ([6]; Human immunodeficiency virus 1, Macrophage) was 3.58 nM. The IC50 [7] was over 1000 nM, the CC50 at 7 days [8] was over 1000 nM and the CC50 ([9]; 52-52 assay) was over 1000 nM. It also gave a CC50 ([9]; 144-44 assay) of over 1000 nM, a CC50 ([9]; 1002-60 assay) of over 1000 nM and a CC50 ([9]; 1064-52 assay) of over 1000 nM. For the same compound, the CC50 ([9]; BFC01 assay) was over 1000 nM, the CC50 ([9]; BR/92/021 assay) was over 1000 nM and the CC50 ([9]; BR/92/025 assay) was over 1000 nM. The CC50 ([9]; BR/93/017 assay) was over 1000 nM, the CC50 ([9]; BR/93/020 assay) was over 1000 nM and the CC50 ([9]; BR/93/022 assay) was over 1000 nM. It also gave a CC50 ([9]; CMU 02 assay) of over 1000 nM, a CC50 ([9]; HIV-2 CDC 310319 assay) of over 1000 nM and a CC50 ([9]; JV 1083 assay) of over 1000 nM. For the same compound, the CC50 ([9]; RW/92/016 assay) was over 1000 nM, the CC50 ([9]; UG/92/046 assay) was over 1000 nM and the “TI (TC50/IC50)” value ([10]; HIV-1 52-52 in PBMCs) was over 9901.0. For the same compound, the “TI (TC50/IC50)” value ([10]; HIV-1 144-44 in PBMCs) was over 1666.7, the “TI (TC50/IC50)” value ([10]; HIV-1 1002-60 in PBMCs) was over 4761.9 and the “TI (TC50/IC50)” value ([10]; HIV-1 1064-52 in PBMCs) was over 3448.3. For the same compound, the “TI (TC50/IC50)” value ([10]; HIV-1 MDR 769 in PBMCs) was over 1851.9, the “TI (TC50/IC50)” value ([10]; HIV-1 MDR 807 in PBMCs) was over 1408.5 and the IC50 [10, 23] was under 0.1 nM. For the same compound, the IC50 [10, 24] was over 1000 nM, the IC50 [10, 25] was 0.54 nM and the IC50 [10, 26] was 0.71 nM. The IC50 [10, 27] was over 1000 nM and the IC50 [10, 28] was over 1000 nM.

With `Cc1c(O)cccc1C(=O)N[C@@H](CSc1ccccc1)[C@H](O)CN1C[C@H]2CCCC[C@H]2C[C@H]1C(=O)NC(C)(C)C` [Nelfinavir, nelfinavir mesylate] the CC50 at 7 days ([1]; TC50) was over 10000 nM, the CC50 [11] was over 10000 nM and the “TI (TC50/IC50)” value ([2]; HIV-1 96USHIPS7 in PBMCs) was over 38.8. The “TI (TC50/IC50)” value ([2]; HIV-1 BFC01 in PBMCs) was over 1010.1, the “TI (TC50/IC50)” value ([2]; HIV-1 BR/92/021 in PBMCs) was over 14.2 and the “TI (TC50/IC50)” value ([2]; HIV-1 BR/92/025 in PBMCs) was over 9901.0. For the same compound, the “TI (TC50/IC50)” value ([2]; HIV-1 BR/93/017 in PBMCs) was over 487.8, the “TI (TC50/IC50)” value ([2]; HIV-1 BR/93/020 in PBMCs) was over 61.0 and the “TI (TC50/IC50)” value ([2]; HIV-1 BR/93/022 in PBMCs) was over 49.8. For the same compound, the “TI (TC50/IC50)” value ([2]; HIV-1 CMU 02 in PBMCs) was over 44.1, the “TI (TC50/IC50)” value ([2]; HIV-1 JV 1083 in PBMCs) was over 71.4 and the “TI (TC50/IC50)” value ([2]; HIV-1 RW/92/016 in PBMCs) was over 74.6. For the same compound, the “TI (TC50/IC50)” value ([2]; HIV-1 UG/92/046 in PBMCs) was over 36.1, the “TI (TC50/IC50)” value ([3]; HIV-1 ADA in macrophages) was over 221.2 and the “TI (TC50/IC50)” value ([3]; HIV-1 Ba-L in macrophages) was over 275.5. For the same compound, the “TI (TC50/IC50)” value [12] was over 62.1, the CC50 [4] was over 1000 nM and the CC50 [13] was over 1000 nM. It also gave a CC50 at 7 days [13] of over 1000 nM, an IC50 [5, 14] of 25.8 nM and an IC50 [5, 15] of 70.5 nM. It also gave an IC50 [5, 16] of 2.05 nM, an IC50 [5, 17] of 16.4 nM and an IC50 [5, 18] of 20.1 nM. It also gave an IC50 [5, 19] of 22.7 nM, an IC50 [5, 20] of 14 nM and an IC50 [5, 21] of 13.4 nM. For the same compound, the IC50 [5, 22] was 27.7 nM, the IC50 ([6]; Human immunodeficiency virus 1, BAL, Macrophage, in Homo sapiens, HIV-1 Ba-L in macrophages) was 36.3 nM and the IC50 ([6]; Human immunodeficiency virus 1, Macrophage, in Homo sapiens, HIV-1 ADA in macrophages) was 45.2 nM. For the same compound, the IC50 [7] was 16.1 nM, the CC50 ([9]; MDR 807 assay) was over 1000 nM and the CC50 ([9]; MDR 1385 assay) was over 1000 nM. The CC50 ([9]; MDR 3761 assay) was over 1000 nM, the “TI (TC50/IC50)” value ([10]; HIV-1 52-52 in PBMCs) was over 10.5 and the “TI (TC50/IC50)” value ([10]; HIV-1 144-44 in PBMCs) was over 6.05. For the same compound, the “TI (TC50/IC50)” value ([10]; HIV-1 1064-52 in PBMCs) was over 1.19, the “TI (TC50/IC50)” value ([10]; HIV-1 MDR 807 in PBMCs) was over 7.41 and the IC50 [10, 23] was 95 nM. The IC50 [10, 24] was over 1000 nM, the IC50 [10, 25] was over 1000 nM and the IC50 [10, 26] was 135 nM. It also gave an IC50 [10, 27] of over 1000 nM and an IC50 [10, 28] of over 1000 nM.
